What all share (experiment): inhibition of tumour cell growth, NCI panel, 48 h
Test [1] has as its system A498 renal.
The subject of test [2] is ACHN renal.
In test [3] the test system is EKVX NSCLC.
For test [4], the system named is HS 578T breast.
In test [5] the test system is HT29 colon.
For test [6], the system named is KM12 colon.
For test [7], the system named is MCF7 breast.
Test [8] concerns MDA-N.
Test [9] has as its system NCI-H23 lung.
The subject of test [10] is PC-3 prostate.
Test [11] deals with SF-268 CNS.

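All cell lines were grown in 96-well plates and treated with compound for 48 hours. The concentration for full growth arrest is given as TGI.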

Consider `CC1=NN=C(C)C1N=Nc1ccc2nc(C)[nH]c2c1`, for which the TGI in test [1] was 38.2 µM; in [2], > 76.8 µM; in test [3] it was > 71.3 µM; in test [4], 29.4 µM; in test [5] it was > 100 µM; in [6] it was > 100 µM. Besides, the TGI in [7] is > 100 µM; in [8] it was > 100 µM; in test [9], > 100 µM; in test [10] it was > 100 µM; in test [11] it was > 83.1 µM.

For `O=C1CN(c2ccccc2)Cc2nc(Cl)ccc2N1`, the TGI in [2], in test [3], in [4], in test [5], in [6] and in [7] was > 100 µM throughout. The TGI in [8], in [10] and in test [11] was > 100 µM throughout.

In the case of `CC1(C)OC(=O)C(C)(C)C(=O)O1`, the TGI in [2], in test [3], in [4], in test [5], in test [6] and in test [7] was > 100 µM each time. The TGI in test [8], in test [9], in test [10] and in test [11] was > 100 µM in each case.

On to `Cc1cccc(C2ON=C(c3ccccc3)N2C23CC4CC(CC(C4)C2)C3)c1` (configuration not stated), for which the TGI in [1], in test [2], in [3], in [4], in test [5] and in test [6] was > 10 µM in each case. Further, the TGI in [7], in test [8], in [9], in test [10] and in test [11] was > 10 µM in each case.

For the compound `CS(=O)(=O)N1CC(CCl)c2ccc(NO)cc21` (configuration not stated), the TGI stood at 31.5 µM in test [1]; 21 µM in test [2]; 32.5 µM in [3]; 60 µM in test [4]; 29.4 µM in test [5]; 36.2 µM in test [6]. Besides, the TGI in [7] worked out at 35.5 µM; in [8], 32.4 µM; in [9], 18 µM; in test [10] it was 39.5 µM; in test [11], 22.5 µM.

Take `O=C/C(=C1/C=Cc2cc([N+](=O)[O-])ccc2S1)c1ccccc1`: the TGI in test [1], in test [2], in test [3], in test [4], in test [5] and in test [7] was > 100 µM in each case. In addition, the TGI in test [8], in test [9], in test [10] and in test [11] was > 100 µM throughout.

Turning to `CC(C)[C@@H]1CC[C@@H](C)C[C@H]1OC(=O)c1c2n(c3ccccc13)C[C@H]1OC(C)(C)O[C@@H]21`, the TGI in test [2] was > 100 µM; in test [3], 73.8 µM; in test [4] it was 51.9 µM; in test [5] it was > 100 µM; in test [6], > 100 µM; in [7], > 100 µM. Besides, the TGI in test [8] was > 100 µM; in test [9] it was 48.9 µM; in test [10] it was > 100 µM; in [11], > 100 µM.

Turning to `O=C1N=C2SC=C(NC(=S)Nc3ccccc3)N2NC12c1ccccc1-c1ccccc12`, the TGI in test [2], in test [3], in test [4], in test [5], in [6] and in [7] was > 10 µM throughout. Besides, the TGI in test [8], in [9], in test [10] and in [11] was > 10 µM throughout.

Consider `CCC(NC(C)c1ccccc1)C(=O)c1ccc(OCc2ccccc2)c(OCc2ccccc2)c1` (configuration not stated), for which the TGI in test [2], in test [3], in [4], in test [5], in test [6] and in test [7] was > 100 µM each time. Further, the TGI in test [8], in test [9], in [10] and in test [11] was > 100 µM throughout.

`Brc1ccc(C2C3CSc4ccccc4C3=NN2c2ccccc2)cc1` (configuration not stated): the TGI in [1], in [4], in test [5], in [6], in test [7] and in [8] was > 100 µM in each case. For the same compound, the TGI in [9], in test [10] and in test [11] was > 100 µM throughout.

`CCOC(=O)N/N=C(/N)c1cccc(Br)c1`: the TGI in test [2], in test [3], in test [4], in [5], in test [6] and in [7] was > 100 µM in each case. Moreover, the TGI in test [8], in [9], in test [10] and in [11] was > 100 µM in each case.

As for `CC(=O)CCCCn1c(=O)c2c(nc(Br)n2C)n(C)c1=O`, the TGI in test [1] is > 100 µM; in test [2], > 100 µM; in test [3] it was 84.1 µM; in test [4] it was > 100 µM; in test [5], > 100 µM; in [6], > 100 µM. The TGI in [7], in test [8], in test [9], in test [10] and in [11] was > 100 µM in each case.

For the compound `COc1nc(N=P(c2ccccc2)(c2ccccc2)c2ccccc2)cc(=O)n1C`, the TGI in test [1], in [2], in test [3], in test [4], in test [5] and in [6] was > 100 µM in each case. For the same compound, the TGI in test [7], in [8], in test [9], in test [10] and in test [11] was > 100 µM in each case.

On to `CCN(CC)CCCNc1c2c(Cl)cc(Cl)cc2nc2nc(=O)[nH]c(C)c12`, for which the TGI in test [1] was > 100 µM; in test [2], > 100 µM; in test [3] it was > 100 µM; in test [4], > 100 µM; in test [5], 36.4 µM; in [6], 31.1 µM. Also, the TGI in test [7] is 53.9 µM; in test [8], 37.7 µM; in [9], > 100 µM; in test [10] it was > 100 µM; in test [11] it was 52.5 µM.

Take `O=c1[nH]/c(=C/c2ccc3c(c2)OCO3)c(=O)[nH]/c1=C/c1ccc2c(c1)OCO2`: the TGI in test [1], in test [2], in test [3], in test [4], in test [5] and in test [6] was > 10 µM in each case. Also, the TGI in test [7], in test [8], in test [9], in test [10] and in test [11] was > 10 µM in each case.

For `CC(C)Oc1c(C2(c3ccccc3)SCCCS2)c(=O)c1=O`, the TGI in test [1], in [2], in test [3], in test [4], in test [5] and in test [6] was > 100 µM each time. Further, the TGI in test [7], in test [8], in test [9], in [10] and in test [11] was > 100 µM each time.

On to `O=c1[nH]nc(Cc2ccccc2)n1/N=C/c1cccs1`, for which the TGI in test [1] was 63 µM; in test [2], > 100 µM; in [3], > 100 µM; in test [4], > 100 µM; in test [5] it was > 100 µM; in test [6], > 100 µM. The TGI in test [7], in [8], in test [9], in test [10] and in test [11] was > 100 µM in each case.

`COc1ccc(-n2c(CCC(=O)O)nc3c2C(=O)c2ccccc2C3=O)cc1`: the TGI in test [1], in test [2], in [3], in [4], in test [5] and in [6] was > 100 µM each time. Further, the TGI in test [7], in [8], in test [9], in test [10] and in test [11] was > 100 µM in each case.

As to `COC(=O)C(CC(C)C)NC(=O)C(NC(=O)c1ccc(-c2ccc(Cl)cc2Cl)o1)C(C)C` (configuration not stated), the TGI in test [2] was 85.6 µM; in test [3] it was 62.6 µM; in test [4], 60.8 µM; in test [5] it was 42.6 µM; in [6], 58.9 µM; in test [7] it was 44.7 µM. Besides, the TGI in test [8] is > 100 µM; in test [9] it was > 100 µM; in test [10], > 100 µM; in test [11], 56.6 µM.

With `Cn1c(=O)c2[nH]c(N=O)nc2n(C)c1=O`, the TGI in test [1], in test [3], in test [4], in test [5], in test [6] and in test [7] was > 100 µM in each case. Also, the TGI in [8], in [9], in test [10] and in test [11] was > 100 µM each time.

For `CCc1n[nH]c(=O)n1CCCCCCCCn1c(CC)n[nH]c1=O`, the TGI in test [2], in test [3], in [4], in test [5], in test [6] and in test [7] was > 100 µM in each case. The TGI in test [8], in test [9], in test [10] and in [11] was > 100 µM throughout.

Regarding `O=C(CNc1ccccn1)Nn1cnc2ccc(S(=O)(=O)Nc3ccccn3)cc2c1=O`, the TGI in [2], in [3], in test [4], in test [5], in test [6] and in [7] was > 100 µM each time. Also, the TGI in test [8], in test [9], in test [10] and in [11] was > 100 µM throughout.

As to `FC(F)(F)c1ccccc1C1SCC2=Nc3ccccc3CN21` (configuration not stated), the TGI was determined as 35.3 µM in [1]; 24.9 µM in test [3]; 27.4 µM in test [4]; 30 µM in [5]; 25.5 µM in test [6]; 26.5 µM in test [7]. Besides, the TGI in [8] was > 100 µM; in test [9] it was 26.6 µM; in [10] it was 27.9 µM; in test [11], 29.2 µM.

With `CSc1ncnc2c1cnn2Cc1cn(COCCO)nn1`, the TGI in test [1] is > 100 µM; in test [2] it was > 100 µM; in test [4], > 100 µM; in test [5] it was 55.4 µM; in test [6], > 100 µM; in test [7], > 100 µM. For the same compound, the TGI in test [8] was 39.6 µM; in test [9] it was > 100 µM; in test [10] it was > 100 µM; in test [11] it was > 100 µM.

On to `COC(=O)c1ccc2c(c1)CC1(C2)Cc2cc3c(cc2C1)CCC3`, for which the TGI in test [1], in [2], in [3], in test [4], in [5] and in [7] was > 100 µM throughout. Moreover, the TGI in [8], in test [9], in test [10] and in test [11] was > 100 µM each time.

`COC(=O)C1(NC(=O)C(Cc2ccccc2)N(C(=O)OC(C)(C)C)C(=O)OC(C)(C)C)CCCC1` (configuration not stated): the TGI in test [1] was > 100 µM; in test [2] it was > 10 µM; in test [3], > 100 µM; in test [4] it was > 100 µM; in test [7], 64.6 µM; in [8] it was > 100 µM. Further, the TGI in test [9], in [10] and in test [11] was > 100 µM each time.

For the origin of these results see PubChem BioAssay (NCI).
